Measurements published in US20130177904A1, “ARNT ISOFORM 3 AS A PREDICTOR OF AMINOFLAVONE RESPONSIVENESS IN CANCER CELLS” (UNIVERSITY OF MARYLAND, BALTIMORE, priority 2010, published 2013).

Experiments:
MCF7 = assay: Cell Death Detection ELISA PLUS apoptosis assay; type: cell-based, Human
Experimental: (§1) To determine the induction of apoptosis, the Cell Death Detection ELISA^PLUS Assay (Roche Cat. No. 11774425001), which determines the degree of cytoplasmic mono- and oligonucleosomes, was employed as described by the manufacturer. […] Cells were then concentrated by centrifugation at 200 g for 10 min at room temperature and the supernatant was discarded. Cells were lysed, and cytoplasmic fractions containing fragmented DNA were transferred to streptavidin-coated microtiter plates preincubated with a biotinylated monoclonal anti-histone antibody. The amount of fragmented nucleosomes bound to anti-histone antibody was evaluated by peroxidase-conjugated monoclonal antibody using ABTS (2,2-azino-di[3-ethylbenzthiazoline sulfonate-6-diammonium salt]) as a substrate, and read in a microplate reader at 405 nm. Non-treated cells were employed as controls.

MDA-MBA-468 = assay: Cell Death Detection ELISA PLUS apoptosis assay; type: cell-based, Human; details: MDA-MBA-468, 48 hours post-AF treatment, 100 nM AF per legend FIG. 2A
Experimental: as §1

BT-549 = BT-549 breast cancer cell line, as determined by the NIH study; cited from earlier work

**Q.** Which “increase (cytoplasmic nucleosomes; printed as increase in inhibition of cell proliferation)” value (MCF7; 1 μM AF, MCF7, FIG. 2A) does the source give for `Cc1c(F)c(N)c2c(=O)cc(-c3ccc(N)c(F)c3)oc2c1F` [AF, 5-amino-2-(4-amino-3-fluorophenyl)-6,8-difluoro-7-methylchromen-4-one] here?
**A.** > 4.5 fold

**Q.** And the induction of apoptosis (MCF7; MCF7, 48 hours post-AF treatment, 100 nM AF per legend FIG. 2A)?
**A.** prominent induction of apoptosis

**Q.** What about the induction of apoptosis (MDA-MBA-468) of the same compound?
**A.** prominent induction of apoptosis

**Q.** And the AF sensitivity (BT-549)?
**A.** AF in-sensitive
